We go through 11 molecules from patent US11267823B2, “Substituted 1,2,3,3a,4,5,7,9,13,13a-decahydropyrido[1′,2′:4,5]pyrazino[1,2-a]pyrrolo[1,2-c]pyrimidines having HIV integrase inhibitory activity” (Shionogi & Co., Ltd., priority 2005, dated 2022).

pIC50: −log10 of the molar value.

The experiment has as its system VSV-g pseudotyped HIV vector that expresses luciferase (PHIV). Kind of experiment: microbe, parasite or virus in culture. Format: cell-based. To be noted: Human immunodeficiency virus 1, HEK-293T, 48 h, read-out: PHIV IC50.

By pIC50 is commonly meant −log10 of the IC50, conventionally taken in molar units. With `O=C(NCc1ccc(F)cc1F)c1cn2c(c(O)c1=O)C(=O)N1[C@@H](CO)CO[C@@H]1C2` [Example Z-14, (3S,11aR)—N-[(2,4-Difluorophenyl)methyl]-6-hydroxy-3-(hydroxymethyl)-5,7-dioxo-2,3,5,7,11,11a-hexahydro[1,3]oxazolo[3,2-a]pyrido[1,2-d]pyrazine-8-carboxamide], the pIC50 is 7.00 to 8.00.
On to `C[C@@H]1[C@H](c2ccccc2)OC2Cn3cc(C(=O)NCc4ccc(F)cc4F)c(=O)c(O)c3C(=O)N21` (stereo partly drawn) [Example Z-15, (2S,3R)—N-[(2,4-Difluorophenyl)methyl]-6-hydroxy-3-methyl-5,7-dioxo-2-phenyl-2,3,5,7,11,11a-hexahydro[1,3]oxazolo[3,2-a]pyrido[1,2-d]pyrazine-8-carboxamide], for which the negative logarithm of the IC50 (pIC50) is more than 8.00.
`O=C(NCc1ccc(F)cc1F)c1cn2c(c(O)c1=O)C(=O)N1[C@H](Cc3ccccc3)CO[C@H]1C2` [Example Z-16, (3R,11aS)—N-[(2,4-Difluorophenyl)methyl]-6-hydroxy-5,7-dioxo-3-(phenylmethyl)-2,3,5,7,11,11a-hexahydro[1,3]oxazolo[3,2-a]pyrido[1,2-d]pyrazine-8-carboxamide]: the pIC50 was more than 8.00.
For the molecule `CC(C)C[C@@H]1CO[C@H]2Cn3cc(C(=O)NCc4ccc(F)cc4F)c(=O)c(O)c3C(=O)N12` [Example Z-17, (3R,11aS)—N-[(2,4-Difluorophenyl)methyl]-6-hydroxy-3-(2-methylpropyl)-5,7-dioxo-2,3,5,7,11,11a-hexahydro[1,3]oxazolo[3,2-a]pyrido[1,2-d]pyrazine-8-carboxamide], the pIC50 is more than 8.00.
For the molecule `O=C(NCc1ccc(F)cc1F)c1cn2c(c(O)c1=O)C(=O)N1CC3CCCCN3[C@H]1C2` (stereo partly drawn) [Example Z-18, (3aR,14aR)—N-[(2,4-Difluorophenyl)methyl]-11-hydroxy-10,12-dioxo-1,2,3,4,5a,6,10,12,14,14a-decahydropyrido[1,2-d]pyrido[1′,2′:3,4]imidazo[1,2-d]pyrazine-9-carboxamide], the pIC50 was more than 8.00.
On to `COC[C@H]1[C@H](c2ccccc2)OC2Cn3cc(C(=O)NCc4ccc(F)cc4F)c(=O)c(O)c3C(=O)N21` (some centres unmarked) [Example Z-19], for which the pIC50 is more than 8.00.
To `O=C(NCc1ccc(F)cc1F)c1cn2c(c(O)c1=O)C(=O)N1[C@@H](CC3CCCCC3)CO[C@@H]1C2` [Example Z-20] belongs 7.00 to 8.00.
On to `CC(C)[C@H]1CO[C@@H]2Cn3cc(C(=O)NCc4ccc(F)cc4F)c(=O)c(O)c3C(=O)N12` [Example Z-21, (3S,11aR)—N-[(2,4-Difluorophenyl)methyl]-6-hydroxy-3-(1-methylethyl)-5,7-dioxo-2,3,5,7,11,11a-hexahydro[1,3]oxazolo[3,2-a]pyrido[1,2-d]pyrazine-8-carboxamide], for which the pIC50 was more than 8.00.
On to `O=C(NCc1ccc(F)cc1F)c1cn2c(c(O)c1=O)C(=O)N1C(C2)O[C@@H]2Cc3ccccc3[C@@H]21` (stereo partly drawn) [Example Z-22, (5aR,14aS)—N-[(2,4-Difluorophenyl)methyl]-12-hydroxy-11,13-dioxo-5a,6a,7,11,13,14a-hexahydro-5H-indeno[1′,2′:4,5][1,3]oxazolo[3,2-a]pyrido[1,2-d]pyrazine-10-carboxamide], for which the negative logarithm of the IC50 (pIC50) is more than 8.00.
In the case of `O=C(NCc1ccc(F)cc1F)c1cn2c(c(O)c1=O)C(=O)N1[C@H](C2)O[C@@H](c2ccccc2)[C@H]1c1ccccc1` [Example Z-23, (2S,3R,11aS)—N-[(2,4-Difluorophenyl)methyl]-6-hydroxy-5,7-dioxo-2,3-diphenyl-2,3,5,7,11,11a-hexahydro[1,3]oxazolo[3,2-a]pyrido[1,2-d]pyrazine-8-carboxamide] it was more than 8.00; in that of `O=C(NCc1ccc(F)cc1F)c1cn2c(c(O)c1=O)C(=O)N1[C@H](c3ccccc3)[C@H](c3ccccc3)O[C@@H]1C2` [Example Z-24, (2S,3R,11aR)—N-[(2,4-Difluorophenyl)methyl]-6-hydroxy-5,7-dioxo-2,3-diphenyl-2,3,5,7,11,11a-hexahydro[1,3]oxazolo[3,2-a]pyrido[1,2-d]pyrazine-8-carboxamide], more than 8.00.
